The source of these data is patent EP1332762A1, “Method of treating hyperprolactinemia and prolactinomas” (Cedars-Sinai Medical Center, priority 1997, dated 1998).

The subject of assay [1] is Cells derived from six prolactin-secreting pituitary adenomas. As to the kind of experiment: Reduction of prolactin secretion from cultured prolactinoma cells (PRL by immunoradiometric assay). It counts as cell-based, human. The note with it: for suppressed prolactin secretion: cell cultures from tumor 1; for suppressed prolactin secretion / suppressed prolactin release / effect on prolactin release: 3 hours; for response of prolactin secretion: cells of the four large male tumors (tumors 1-4); for response of prolactin secretion / effect on prolactin release / effect on prolactin production: result in words; for suppressed prolactin release / effect on prolactin production: large tumor 4 cell cultures; for suppressed prolactin release / effect on prolactin release: 10-100 nM; for effect on prolactin release: adenomatous cell cultures of tumor 1.

The next assay concerns the target hSSTR-1 (Homo sapiens, UniProt P30872). Kind of assay: Somatostatin receptor binding assay ([125I-Tyr11]somatostatin-14, membranes of transfected CHO-K1 cells). The note with it: radioligand 0.05 nM, 30 min at 30 °C.
In the next assay the target is hSSTR-2 (Homo sapiens, UniProt P30874). The assay is described as above. The note with it: radioligand 0.05 nM, 30 min at 30 °C.
hSSTR-2, sequence (P30874 whole entry): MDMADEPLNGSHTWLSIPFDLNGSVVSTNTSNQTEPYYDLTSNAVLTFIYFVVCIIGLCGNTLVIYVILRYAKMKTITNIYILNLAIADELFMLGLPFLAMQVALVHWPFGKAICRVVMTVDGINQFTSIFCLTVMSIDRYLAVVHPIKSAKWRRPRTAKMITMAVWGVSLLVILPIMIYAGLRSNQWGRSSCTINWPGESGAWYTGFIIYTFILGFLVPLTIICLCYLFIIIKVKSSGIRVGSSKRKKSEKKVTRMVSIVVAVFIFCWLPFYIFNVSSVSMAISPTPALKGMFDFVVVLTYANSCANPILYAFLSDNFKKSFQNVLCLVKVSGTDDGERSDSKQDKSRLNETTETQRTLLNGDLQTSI
A further assay has as its target hSSTR-3 (Homo sapiens, UniProt P32745). Described as above. The note with it: radioligand 0.05 nM, 30 min at 30 °C.
The target of a further assay is hSSTR-4 (Homo sapiens, UniProt P31391). Described as above. The note with it: radioligand 0.05 nM, 30 min at 30 °C.
hSSTR-4, sequence (P31391 whole entry): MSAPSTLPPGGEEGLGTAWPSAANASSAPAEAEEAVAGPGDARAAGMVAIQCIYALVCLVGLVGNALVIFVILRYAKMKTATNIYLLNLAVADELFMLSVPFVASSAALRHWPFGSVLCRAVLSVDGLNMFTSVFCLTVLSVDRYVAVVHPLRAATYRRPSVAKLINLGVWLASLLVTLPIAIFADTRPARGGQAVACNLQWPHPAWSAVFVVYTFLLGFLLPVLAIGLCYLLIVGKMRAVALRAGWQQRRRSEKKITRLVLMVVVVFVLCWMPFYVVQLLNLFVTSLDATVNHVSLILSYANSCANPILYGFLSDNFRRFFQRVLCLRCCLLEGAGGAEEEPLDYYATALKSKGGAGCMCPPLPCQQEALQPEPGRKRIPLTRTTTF
In the next assay the target is hSSTR-5 (Homo sapiens, UniProt P35346). The assay is described as above. The note with it: radioligand 0.05 nM, 30 min at 30 °C.
hSSTR-5, sequence (P35346 whole entry): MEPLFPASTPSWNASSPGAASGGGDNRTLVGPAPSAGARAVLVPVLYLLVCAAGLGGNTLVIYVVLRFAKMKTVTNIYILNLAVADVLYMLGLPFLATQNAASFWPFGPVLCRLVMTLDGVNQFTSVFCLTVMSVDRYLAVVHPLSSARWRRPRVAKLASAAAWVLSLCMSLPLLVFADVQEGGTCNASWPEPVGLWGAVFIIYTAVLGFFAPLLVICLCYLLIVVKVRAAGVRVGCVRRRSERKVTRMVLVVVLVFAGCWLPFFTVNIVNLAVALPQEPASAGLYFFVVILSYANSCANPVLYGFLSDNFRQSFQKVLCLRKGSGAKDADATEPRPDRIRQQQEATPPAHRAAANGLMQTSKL

Positions of bridges follow the written chain, without caps; N, C: chain ends. Non-standard residues stand in square brackets, D forms with d. Residues, ends and D or L forms follow the SMILES beside them.

hSSTR-3, sequence (P32745 whole entry): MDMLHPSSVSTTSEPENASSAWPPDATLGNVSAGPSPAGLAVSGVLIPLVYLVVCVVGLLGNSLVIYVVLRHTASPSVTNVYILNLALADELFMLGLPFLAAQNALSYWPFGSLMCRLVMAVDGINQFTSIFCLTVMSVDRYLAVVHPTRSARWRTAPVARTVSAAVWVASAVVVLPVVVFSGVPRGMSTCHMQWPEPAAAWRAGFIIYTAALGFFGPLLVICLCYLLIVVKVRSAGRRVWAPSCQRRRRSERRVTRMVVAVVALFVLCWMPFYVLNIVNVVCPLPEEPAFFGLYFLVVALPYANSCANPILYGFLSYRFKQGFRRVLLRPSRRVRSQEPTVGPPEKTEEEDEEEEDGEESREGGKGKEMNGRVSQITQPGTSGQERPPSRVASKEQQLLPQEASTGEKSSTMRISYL
hSSTR-1, sequence (P30872 whole entry): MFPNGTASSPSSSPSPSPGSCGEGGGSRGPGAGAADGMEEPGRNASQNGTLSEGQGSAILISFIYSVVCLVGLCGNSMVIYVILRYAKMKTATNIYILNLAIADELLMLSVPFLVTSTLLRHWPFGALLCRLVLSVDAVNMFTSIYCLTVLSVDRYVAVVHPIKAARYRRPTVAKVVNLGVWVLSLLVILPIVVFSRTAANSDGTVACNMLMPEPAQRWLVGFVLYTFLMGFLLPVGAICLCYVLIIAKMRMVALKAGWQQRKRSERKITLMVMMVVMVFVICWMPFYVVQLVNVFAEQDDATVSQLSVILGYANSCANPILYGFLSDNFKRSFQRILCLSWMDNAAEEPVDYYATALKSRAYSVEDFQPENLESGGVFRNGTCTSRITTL

The compound `C[C@@H](O)[C@@H]1NC(=O)[C@H](CCCCN)NC(=O)[C@@H](Cc2c[nH]c3ccccc23)NC(=O)[C@H](Cc2ccccc2)NC(=O)[C@H](Cc2ccccc2)NC(=O)[C@@H](N)CSSC[C@@H](C(N)=O)NC(=O)[C@H](Cc2ccccc2)NC1=O` [BIM-23268] (H-CFF[dW]KTFC-NH2; disulfide 1-8) showed a suppressed prolactin secretion in assay [1] (10 nM, p<0.05) of 36%. Moreover, in assay [1], the “response of prolactin secretion” value was “suppression of prolactin secretion”. For the same compound, the suppressed prolactin result in assay [1] (large tumor 3 cell cultures, 10 nM and 100 nM, dose dependent, p<0.05) is recorded as “up to 29%”. In assay [1] (p<0.05), the suppressed prolactin release result was “more than 30%”. Moreover, the Prolactin release inhibited in assay [1] (tumor 2 cell cultures, 10 nM, versus controls, p<0.0005) turned out to be 38%.
In the case of `CC[C@@H]1NC(=O)[C@H](CCCCN)NC(=O)[C@@H](Cc2c[nH]c3ccccc23)NC(=O)[C@H](Cc2ccc(O)cc2)NC(=O)[C@@H](NC(=O)[C@@H](Cc2ccccc2)NS(=O)(=O)CCN2CCN(CCO)CC2)CSSC[C@@H](C(=O)N[C@H](C(N)=O)[C@@H](C)O)NC1=O` [BIM-23197], in assay [1], the “effect on prolactin release” value is “did not affect prolactin release”, the “response of prolactin secretion” value is “failed to respond” and the “effect on prolactin production” value was “modestly stimulated prolactin production”.
As for `C[C@@H](O)[C@@H]1NC(=O)[C@H](CCCCN)NC(=O)[C@@H](Cc2c[nH]c3ccccc23)NC(=O)[C@H](Cc2ccccc2)NC(=O)[C@@H](NC(=O)[C@H](N)Cc2ccccc2)CSSC[C@@H](C(=O)N[C@H](CO)[C@@H](C)O)NC1=O` [Octreotide], the “response of prolactin secretion” value in assay [1] is “failed to respond”.
As for `CC[C@@H]1NC(=O)[C@H](CCCCN)NC(=O)[C@@H](Cc2c[nH]c3ccccc23)NC(=O)[C@H](Cc2ccc(O)cc2)NC(=O)[C@@H](NC(=O)[C@H](N)Cc2ccccc2)CSSC[C@@H](C(=O)N[C@H](C(N)=O)[C@@H](C)O)NC1=O` [BIM-23023], the “effect on prolactin release” value in assay [1] is reported as “did not affect prolactin release”.
On to `C[C@@H](O)[C@H](NC(=O)[C@H](Cc1ccccc1)NC(=O)[C@@H](NC(=O)[C@H](CCCCN)NC(=O)[C@@H](Cc1c[nH]c2ccccc12)NC(=O)[C@H](Cc1ccccc1)NC(=O)[C@H](Cc1ccccc1)NC(=O)[C@H](N)Cc1ccccc1)[C@@H](C)O)C(N)=O` [BIM-23052, H-D-Phe-Phe-Phe-D-Trp-Lys-Thr-Phe-Thr-NH2] (H-[dF]FF[dW]KTFT-NH2), for which the Ki – broadly, a measure of affinity in units of concentration, obtained from inhibition or displacement – on hSSTR-1 is 97.6 nM; on hSSTR-2, 12 nM; at hSSTR-3 it was 5.6 nM; at hSSTR-4, 127 nM; on hSSTR-5, 1.22 nM. The suppressed prolactin secretion in assay [1] (10 nM, p<0.05) is recorded as 33%. Besides, the “response of prolactin secretion” value in assay [1] is on record as “suppression of prolactin secretion”. The suppressed prolactin release entry in assay [1] (p<0.05) is recorded as “more than 30%”.
Regarding `CC[C@@H]1NC(=O)[C@H](CCCCN)NC(=O)[C@@H](Cc2c[nH]c3ccccc23)NC(=O)[C@H](Cc2ccc(O)cc2)NC(=O)[C@@H](NC(=O)[C@@H](Cc2ccccc2)NC(=O)CN2CCN(CCO)CC2)CSSC[C@@H](C(=O)N[C@H](C(N)=O)[C@@H](C)O)NC1=O` [BIM-23190], in assay [1], the “effect on prolactin release” value was “did not affect prolactin release”, the “response of prolactin secretion” value is listed as “failed to respond” and the “effect on prolactin production” value was “modestly stimulated prolactin production”.
For `CC(C)[C@@H]1NC(=O)[C@H](CCCCN)NC(=O)[C@@H](Cc2c[nH]c3ccccc23)NC(=O)[C@H](Cc2ccc(O)cc2)NC(=O)[C@@H](NC(=O)[C@H](N)Cc2ccc3ccccc3c2)CSSC[C@@H](C(=O)N[C@H](C(N)=O)[C@@H](C)O)NC1=O` [Lanreotide], the affinity at hSSTR-2 corresponds to a Ki of 0.75 nM. Moreover, in assay [1], the “effect on prolactin release” value was “did not affect prolactin release” and the “response of prolactin secretion” value was “failed to respond”.
